The record followed here is PMC4433340 (PLoS Neglected Tropical Diseases, 2015).

Holding throughout (assay type): cell-based, human
For assay [1], the system named is E-selectin, ICAM-1 and VCAM-1 expression on T. cruzi-infected EA.hy926 and HUVEC cells. As to the kind of experiment: Endothelial cell adhesion molecule surface expression by flow cytometry / immunofluorescence. The conditions noted are these: EA.hy926. As for the experimental part:
Then, cells were infected with trypomastigotes at a MOI of 10 and incubated for 16 hours. Cells were detached with 1X EDTA-PBS at 0.5 mM. The harvested cells were washed with cold PBS and centrifuged at 800 x g for 5 minutes. Then, cells were washed with flow cytometry buffer three times. 100 μL of cell suspensions were incubated for 45 min at 4°C in the dark with mouse monoclonal anti- human E-selectin (5 μL undiluted), ICAM-1(3 μL undiluted), and VCAM-1 (1 μL undiluted) that were conjugated with PE, FITC and APC, respectively (BioLegend, USA). Cell suspensions were analyzed by flow cytometry using a FACSAria-III flow cytometer (BD Biosciences, USA). A homogeneous cell population was selected by size vs. granularity in log scale for these two conditions.
2x10^4 EA.hy926 cells/slide were seeded in Lab-Tek II Chamber Slide^TM (ThermoScientific, USA) and allowed to adhere overnight. […] After 16 hours of infection, cells were fixed in 4% formaldehyde–0.1 M phosphate buffer (pH 7.3) for 10 min. Cells were blocked with 3% bovine serum albumin for 1 hour. Then, cells were incubated with monoclonal antibodies against E-selectin (1:100), VCAM-1 (1:250) and ICAM-1 (1:100) (from Abcam, UK) overnight at 4°C. The samples were washed with PBS and incubated with anti-rabbit IgG that had been conjugated with fluorescein (1:100) from Sigma-Aldrich for 1 h. Finally, nuclei were stained with DAPI for 5 minutes and mounted with Dako Fluorescence Mounting (Dako, USA). The cells were photographed using a Nikon Eclipse 400 fluorescence microscope (Nikon, Japan), and images were analyzed by mean intensity using ImageJ software (ImageJ 1.47v).

Assay [2] has as its system NF-κB pathway (p-IKK, p-IκB) in T. cruzi-infected EA.hy926 cells. As to the kind of experiment: IKK and IκB phosphorylation by Western blot. The conditions noted are these: exogenous 15-epi-LXA4 for 24 hours before T. cruzi 1 hour. As for the experimental part: 5x10^5 endothelial cells were rinsed once with PBS and scraped. Proteins were extracted into 100 μL RIPA buffer plus a protease and phosphatase inhibitor cocktail (Radio-Immunoprecipitation Assay; Millipore Corporation, USA) at 4°C. Total protein was quantified with the Lowry assay. Samples in loading buffer (10% SDS, 50% glycerol, 0.5 M Tris, 0.1% bromophenol blue, and 1 M dithiothreitol, pH 6.8) were electrophoretically separated by 10% SDS-PAGE and transferred to a nitrocellulose membrane. Nitrocellulose membranes were incubated with blocking solution (5% w/v nonfat dry milk, 0.1% Tween-20 in Tris-buffered saline) at room temperature for 1 hour. Then, the membranes were incubated at 4°C overnight with 1 mL solution of primary antibodies against E-selectin (1:1000) and α-Tubulin (1:10.000) from Sigma-Aldrich, ICAM-1 (1:2000) and VCAM-1 (1:1000) from Abcam, 7 ml solution of p-IKK (1:1000), IKK (1:1000), p-IκB (1:1000) and IκB (1:1000) from Cell signaling (Cell Signaling Technologies, USA). Bound antibodies were detected with horseradish peroxidase-conjugated secondary antibodies and visualized by Lumminata forte (Millipore). The nitrocellulose was stripped between reprobes using Mild stripping (Millipore) for 10 minutes. Developed films were scanned, and band densitometry was analyzed using ImageJ software (ImageJ 1.47v).

Assay [3] concerns NF-κB p65 in T. cruzi-infected EA.hy926 cells. As to the kind of experiment: Nuclear p65 localization by confocal microscopy. The following applies: 100 nM 15-epi-LXA4 before T. cruzi 1 hour. As for the experimental part:
2x10^4 EA.hy926 cells were seeded in Lab-Tek II Chamber Slides^TM for 12 hours. Cells were fixed in 3.7% formaldehyde–0.1 M phosphate buffer (pH 7.3) for 10 min. They were then washed with cytoskeletal buffer followed by permeabilization for 5 min with Triton-X100 0.5%. Cells were blocked with 3% bovine serum albumin for 1 hour. […] The samples were washed with PBS and incubated with anti-rabbit IgG conjugated with fluorescein (1:100) from Sigma-Aldrich for 1 hour. Finally, nuclei were stained with DAPI for 5 minutes and mounted in Dako fluorescence mounting media. The cells were photographed and ten pictures per well were obtained; images were analyzed using ImageJ software (ImageJ 1.47v).

On to `CC1=C(C)C(=O)C(CCCCC#CCCCC#CCO)=C(C)C1=O` [AA-861, 2-(12-hydroxydodeca-5,10-diynyl)-3,5,6-trimethyl-p-benzoquinone], for which the “ICAM expression in presence of simvastatin plus 5-lipoxygenase inhibitor” value in assay [1] (5 μM simvastatin with AA-861 (50 μM) for 24 hours before 16 hours infection) was “ICAM expression was restored”.

For the molecule `CCCCC[C@@H](O)/C=C/C=C\C=C\C=C\[C@@H](O)[C@@H](O)CCCC(=O)O` [15-epi-LXA4, 15-epi-lipoxin A4], the “Endothelial adhesion molecule expression” value in assay [1] (1 and 10 nM 15-epi-LXA4 for 24 hours before 16 hours infection) is recorded as “reduced endothelial adhesion molecule expression”. For the same molecule, the IKK-IκB pathway activity entry in assay [2] is given as “decreased IKK-IκB pathway activity in a dose-dependent fashion”. Further, the “Nuclear p65 migration” value in assay [3] is given as “decreased nuclear p65 migration”.
